Data from the NIST ThermoML archive (doi:10.1016/j.jct.2018.01.003).
± gives the expanded uncertainty stated by the source.

Legend:
[1] = activity coefficient (dimensionless); of the first substance listed, at infinite dilution; xn = mol fraction of the nth substance listed; settings: 101.33 kPa, Liquid, Chromatography, x1 = 0
[2] = 101.33 kPa, Liquid, Vibrating tube method

Row | SMILES | activity coefficient ([1]; 328.15 K) | activity coefficient ([1]; 338.15 K) | activity coefficient ([1]; 348.15 K) | activity coefficient ([1]; 358.15 K) | activity coefficient ([1]; 368.15 K) | mass density ([2]; 298.15 K) [kg/m3] | mass density ([2]; 308.15 K) [kg/m3] | mass density ([2]; 318.15 K) [kg/m3] | mass density ([2]; 328.15 K) [kg/m3] | mass density ([2]; 338.15 K) [kg/m3] | mass density ([2]; 348.15 K) [kg/m3] | mass density ([2]; 358.15 K) [kg/m3] | mass density ([2]; 368.15 K) [kg/m3]
1 | CCCCCCCC [octane] + CCCCCCCCCCCCCC[P+](CCCCCC)(CCCCCC)CCCCCC.N#CC(=C=[N-])C#N | 2.35 ± 0.16 | 2.36 ± 0.16 | 2.37 ± 0.16 | 2.38 ± 0.16 | 2.39 ± 0.16 |  |  |  |  |  |  |  | 
2 | CCCC(C)=O [pentan-2-one] + CCCCCCCCCCCCCC[P+](CCCCCC)(CCCCCC)CCCCCC.N#CC(=C=[N-])C#N |  | 0.459 ± 0.036 | 0.477 ± 0.037 | 0.502 ± 0.038 | 0.52 ± 0.039 |  |  |  |  |  |  |  | 
3 | CCC(=O)CC [pentan-3-one] + CCCCCCCCCCCCCC[P+](CCCCCC)(CCCCCC)CCCCCC.N#CC(=C=[N-])C#N |  | 0.451 ± 0.036 | 0.47 ± 0.037 | 0.494 ± 0.038 | 0.514 ± 0.038 |  |  |  |  |  |  |  | 
4 | CCCCC [pentane] + CCCCCCCCCCCCCC[P+](CCCCCC)(CCCCCC)CCCCCC.N#CC(=C=[N-])C#N | 1.59 ± 0.11 | 1.62 ± 0.11 | 1.64 ± 0.11 | 1.67 ± 0.11 | 1.69 ± 0.11 |  |  |  |  |  |  |  | 
5 | CCCO [propan-1-ol] + CCCCCCCCCCCCCC[P+](CCCCCC)(CCCCCC)CCCCCC.N#CC(=C=[N-])C#N | 0.426 ± 0.035 | 0.437 ± 0.035 | 0.447 ± 0.036 | 0.457 ± 0.036 | 0.465 ± 0.036 |  |  |  |  |  |  |  | 
6 | c1ccncc1 [pyridine] + CCCCCCCCCCCCCC[P+](CCCCCC)(CCCCCC)CCCCCC.N#CC(=C=[N-])C#N |  | 0.401 ± 0.034 | 0.413 ± 0.034 | 0.425 ± 0.035 | 0.438 ± 0.035 |  |  |  |  |  |  |  | 
7 | Cc1ccccc1 [toluene] + CCCCCCCCCCCCCC[P+](CCCCCC)(CCCCCC)CCCCCC.N#CC(=C=[N-])C#N | 0.558 ± 0.04 | 0.585 ± 0.041 | 0.611 ± 0.043 | 0.635 ± 0.044 | 0.656 ± 0.045 |  |  |  |  |  |  |  | 

Further lines, results first:

Row | activity coefficient ([1]; 328.15 K) | activity coefficient ([1]; 338.15 K) | activity coefficient ([1]; 348.15 K) | activity coefficient ([1]; 358.15 K) | activity coefficient ([1]; 368.15 K) | mass density ([2]; 298.15 K) [kg/m3] | mass density ([2]; 308.15 K) [kg/m3] | mass density ([2]; 318.15 K) [kg/m3] | mass density ([2]; 328.15 K) [kg/m3] | mass density ([2]; 338.15 K) [kg/m3] | mass density ([2]; 348.15 K) [kg/m3] | mass density ([2]; 358.15 K) [kg/m3] | mass density ([2]; 368.15 K) [kg/m3] | SMILES
8 | 0.503 ± 0.038 | 0.507 ± 0.038 | 0.51 ± 0.038 | 0.514 ± 0.038 | 0.516 ± 0.038 |  |  |  |  |  |  |  |  | CC(C)O [propan-2-ol] + CCCCCCCCCCCCCC[P+](CCCCCC)(CCCCCC)CCCCCC.N#CC(=C=[N-])C#N
9 | 0.496 ± 0.038 | 0.52 ± 0.039 | 0.544 ± 0.04 | 0.57 ± 0.041 | 0.593 ± 0.042 |  |  |  |  |  |  |  |  | C=Cc1ccccc1 [styrene] + CCCCCCCCCCCCCC[P+](CCCCCC)(CCCCCC)CCCCCC.N#CC(=C=[N-])C#N
10 | 0.381 ± 0.033 | 0.4 ± 0.034 | 0.417 ± 0.035 | 0.436 ± 0.035 | 0.453 ± 0.036 |  |  |  |  |  |  |  |  | C1CCOC1 [tetrahydrofuran] + CCCCCCCCCCCCCC[P+](CCCCCC)(CCCCCC)CCCCCC.N#CC(=C=[N-])C#N
11 | 0.41 ± 0.034 | 0.429 ± 0.035 | 0.445 ± 0.036 | 0.461 ± 0.036 | 0.478 ± 0.037 |  |  |  |  |  |  |  |  | c1ccsc1 [thiophene] + CCCCCCCCCCCCCC[P+](CCCCCC)(CCCCCC)CCCCCC.N#CC(=C=[N-])C#N
12 |  |  |  |  |  | 900.77 ± 3.7 | 894.91 ± 3.7 | 889.05 ± 3.7 | 883.23 ± 3.7 | 877.43 ± 3.7 | 871.66 ± 3.7 | 865.92 ± 3.6 | 860.2 ± 3.6 | CCCCCCCCCCCCCC[P+](CCCCCC)(CCCCCC)CCCCCC.N#CC(=C=[N-])C#N [trihexyltetradecylphosphonium tricyanomethanide]
13 | 1.92 ± 0.13 | 1.77 ± 0.12 | 1.65 ± 0.11 | 1.54 ± 0.1 | 1.44 ± 0.09 |  |  |  |  |  |  |  |  | O [water] + CCCCCCCCCCCCCC[P+](CCCCCC)(CCCCCC)CCCCCC.N#CC(=C=[N-])C#N
